SMILES strings stand for the structures. Read-outs that look alike come from different tables or passages of the source.

Data on 7 compounds can be found in patent US4442098A, “Pentacyclic derivatives of piperazine” (Beecham Group Limited, priority 1980, dated 1984).

This assay has as its system central 5HT. Kind of assay: inhibition of behavioural symptoms (forepaw tapping, head jerks, splayed limbs) induced by 5-methoxy-N,N-dimethyltryptamine in mice. The class given is in vivo, mice (male CD-1 Charles Rine). As to conditions: 1 h pretreatment, 10 mg/kg ip 5-methoxy-N,N-dimethyltryptamine; for ED50: Mus musculus, 1 h, read-out: ED50 (dose of compound inhibiting the symptoms by 50%). The procedure:
Mice (.male. CD^-1 Charles Rine) are pretreated with the compounds 10 animals/group under investigation and 1 h later one group is injected with 10 mg/kg ip 5-methoxy-N,N-dimethyltryptamine (Sigma). The symptoms of forepaw tapping movements, head jerks and splayed limbs are scored: 1, present; 0, absent, giving a maximum score of 3/mouse or 30/group. Results are expressed as the percentage inhibition compared to the group treated with 5-methoxy-N,N-dimethyl tryptamine alone. The dose of compound inhibiting the symptoms by 50% is determined graphically.

With `CN1CC2CC(O)c3cccc4c3N2C(C1)c1ccccc1C4` (single isomer, unassigned) [Compound 3, 1,2,3,3a,4,5,9,13b-Octahydro-2-methyl-2-benzazepino[4,3,2-ij]pyrazino[1,2-a]quinolin-5-ol], the ED50 (po, p.o.) was 0.65 mg/kg.

Consider `CN1CC2CC(O)c3cccc4c3N2C(C1)c1ccccc1C4` (single isomer, unassigned) [Compound 4, 1,2,3,3a,4,5,9,13b-Octahydro-2-methyl-2-benzazepino[4,3,2-ij]pyrazino[1,2-a]quinolin-5-ol], for which the ED50 (ip, i.p.) was 0.3 mg/kg.

Consider `CN1CC2CC(=O)c3cccc4c3N2C(C1)c1ccccc1C4` (stereo not shown) [Compound 1, 1,2,3,3a,4,5,9,13b-Octahydro-2-methyl-2-benzazepino[4,3,2-ij]pyrazino[1,2-a]quinolin-5-one], for which the ED50 (po, p.o.) came to 12 mg/kg.

`CN1CC2CCc3cccc4c3N2C(C1)c1ccccc1C4` (stereo not shown) [Compound 6, 1,2,3,3a,4,5,9,13b Octahydro-2-methyl-2-benzazepino[4,3,2-ij]pyrazino[1,2-a]quinoline]: the ED50 (po, p.o.) is 10 mg/kg.

As for `CN1CC2CCc3cccc4c3N2C(C1)c1ccccc1C4` (stereo not shown) [Compound 7, 1,2,3,3a,4,5,9,13b-octahydro-2-methyl-2-benzazepino[4,3,2-ij]pyrazino[1,2-a]quinoline], the “ED50 (dose of compound inhibiting the symptoms by 50%)” value (p.o., 60 min) was 13 mg/kg.

Take `CN1CC2CC(=NO)c3cccc4c3N2C(C1)c1ccccc1C4` (stereo not shown) [Compound 8, 1,2,3,3a,4,5,9,13b-octahydro-2-methyl-2-benzazepino[4,3,2-ij]-pyrazino[1,2-a]-5-oxaminoquinoline]: the ED50 (po, p.o.) was 3 mg/kg.

`CN1CC2CC(=O)c3cccc4c3N2C(C1)c1ccccc1O4` (stereo not shown) [Compound 16, 2-methyl,1,3,4,14b-tetrahydro 4,6-ethano-2H-dibenzo[bf]pyrazino[1,2-d][1,4]oxazepin-15-one]: the ED50 (po, p.o.) amounted to 10 mg/kg.
